Where a SMILES comes first, the peptide text is derived from it. Bridges are numbered along the chain shown (N, C = ends). Bounds are passed on as bounds.

Data set [1] deals with aged rat model for post-menopausal osteoporosis. The data set can be described thus: Vertebral compression of L5 (trabecular bone). It is filed as in vivo, Sprague-Dawley rats (Rattus Norvegicus). The following applies: slow release pellet 0.01 mg/day, 12 weeks. How it is done:
Ninety-six aged Sprague-Dawley rats were randomly assigned to one of eight groups. The first two groups were sham operated. Group 1 was kept as a Sham control and Group 2 was treated with 2.5 mg/kg/day of recombinant human GH (rhGH) (BresaGen). The remaining six groups arrived from Harlan, ovariectomized (OVX). This surgery was performed approximately 8 days before the commencement of treatment. Group 3 was left as a control for the OVX model. Group 4 was given a treatment of 2.5 mg/kg/day of rhGH. Group 5 was treated with a low dose of AOD peptide (LAOD) 0.75 mg/kg/day and Group 6 was treated with a high dose of AOD peptide (HAOD) 2.0 mg/kg/day. […]
Statistical analysis was performed using statistical software, SPSS (version 11.0). Comparisons involving two groups were analyzed by independent student's t-test. Multiple comparisons were analyzed by one-way ANOVA analysis using the pairwise comparison Protected Fisher's Least Significant Difference (LSD) post hoc test. […]
Digital images were taken and image analysis software (ImageJ 1.28u, NIH) was used to determine the height and cross-sectional area of the vertebral body. […] While preloading the samples, the distance between the platens was measured using digital calipers. The gauge length was then determined by subtracting the height of the jig with the distance between the platens. […]

In data set [2] the test system is C57B1/6J (Ob/Ob) mouse. The following applies: from AU 693478; cited from earlier work.

For 17B-estradiol [Estrogen], in data set [1], the “strength and stiffness (vertebral compression L5), decrease caused by OVX” value is on record as “did not prevent a decrease”; the “stress and elastic modulus values (vertebral compression L5) compared to OVX” value is on record as “higher”.
On to “hGH 177-191: synthetic peptide corresponding to amino acid residues 177-191 of the human growth hormone sequence (LRIVQCRSVEGSCGF; UniProt P01241 203-217, looked up, fragment)”, for which, in data set [2], the adipose tissue mass result is on record as “reduce” and the body weight gain result is reported as “reduce”.
Regarding `CC[C@H](C)[C@H](NC(=O)[C@H](CCCNC(=N)N)NC(=O)[C@H](CC(C)C)NC(=O)[C@@H](N)Cc1ccc(O)cc1)C(=O)N[C@H](C(=O)N[C@@H](CCC(N)=O)C(=O)N[C@H]1CSSC[C@@H](C(=O)NCC(=O)N[C@@H](Cc2ccccc2)C(=O)O)NC(=O)[C@H](CO)NC(=O)CNC(=O)[C@H](CCC(=O)O)NC(=O)[C@H](C(C)C)NC(=O)[C@H](CO)NC(=O)[C@H](CCCNC(=N)N)NC1=O)C(C)C` [AOD, Tyr Leu Arg Ile Val Gln Cys Arg Ser Val Glu Gly Ser Cys Gly Phe] (H-YLRIVQCRSVEGSCGF-OH; disulfide 7-14; N-terminus and C-terminus assumed), the solubility – broadly, how much of the substance goes into solution per volume – was above 1000 µg/mL.
